Values joined by “and” are separate entries in the source; they are usually repeats but may differ in a detail not shown here. Identical values can stand only once.
target: T1, RORγ ligand binding domain (LBD) (Homo sapiens, UniProt P51449); assay: TR-FRET Activity Assay (RORγ-LBD / coactivator peptide interaction); format: biochemical; conditions: Table 2; read-out: RORγ activity in the TR-FRET Activity Assay (IC50 FRET), Group
T1 construct: made in house; host or cells: E. coli BL-21 (BL3), vector pDEST15
T1 sequence (P51449 269-508 limits assumed): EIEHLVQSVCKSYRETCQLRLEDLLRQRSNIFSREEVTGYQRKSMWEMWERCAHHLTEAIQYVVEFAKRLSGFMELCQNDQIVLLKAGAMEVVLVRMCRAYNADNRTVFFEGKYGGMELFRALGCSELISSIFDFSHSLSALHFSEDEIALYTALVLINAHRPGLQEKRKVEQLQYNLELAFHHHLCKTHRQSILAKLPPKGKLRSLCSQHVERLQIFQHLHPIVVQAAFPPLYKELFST
Description: This method measures the ability of putative ligands to modulate the interaction between the purified bacterial expressed RORγ ligand binding domain (LBD) and synthetic N-terminally biotinylated peptides which are derived from nuclear receptor coactivator proteins such as but not limited to SRC1 (NcoA1), SRC2 (NcoA2, TIF2), SRC3 (NcoA3), PGC1α, PGC1β, CBP, GRIP1, TRAP220, RIP140.
The ligand-binding domain (LBD) of RORγ was expressed as fusion protein with GST in […] cells using the vector pDEST15. Cells were lysed by lysozyme-treatment and sonication, and the fusion proteins purified over glutathione sepharose (Pharmacia) according to the manufacturers instructions. For screening of compounds for their influence on the RORγ-peptide interaction, the LANCE technology (Perkin Elmer) was applied. This method relies on the binding dependent energy transfer from a donor to an acceptor fluorophor attached to the binding partner of interest. For ease of handling and reduction of background from compound fluorescence LANCE technology makes use of generic fluorophore labels and time resolved detection assays were done in a final volume of 25 μL in a 384 well plate, in a Tris-based buffer system (20 mM Tris-HCl pH6.8; 60 mM KCl, 1 mM DTT; 5 mM MgCl2; 35 ng/μL BSA), containing 20-60 ng/well recombinantly expressed RORγ-LBD fused to GST, 200-600 nM N-terminally biotinylated peptide, 200 ng/well Streptavidin-xIAPC conjugate (Prozyme) and 6-10 ng/well Eu W1024—antiGST (Perkin Elmer). DMSO content of the samples was kept at 1%.
After generation of the Tris-based buffer system, the potentially RORγ modulating ligands were diluted. […] The LANCE signal was detected by a Perkin Elmer EnVision™ Multilabel Counter. The results were visualized by plotting the ratio between the emitted light at 665 nm and 615 nm. […] Ligands that promote the complex formation induce a concentration-dependent increase in time-resolved fluorescent signal.
To assess the antagonistic potential of the compounds, IC50 values were determined using a Ligand Sensing Assay based on Time-resolved Fluorescence Energy Transfer (TR-FRET) as described above. The normalised TR-FRET assay values, using the following equation: 1000*665 nm measurement value/615 nm measurement value, were transferred to the program GraphPad Prism to generate graphs and dose response curves using the following equation: • Equation: Sigmoidal dose-response (variable slope) Y=Bottom+(Top−Bottom)/(1+10^((Log EC50−X)*HillSlope))
This is identical to the “four parameter logistic equation”. The IC50 values are calculated using this equation.

In the case of `COc1ccccc1S(=O)(=O)N1Cc2ccccc2COC[C@H]1Cc1ccccc1` [1/2], the IC50 is reported as < 500 nM and > 2000 nM.

`COc1ccc(F)cc1S(=O)(=O)N1Cc2ccccc2COCC1Cc1ccccc1` (stereo not shown) [1/5] and `COc1ccc(Cl)cc1S(=O)(=O)N1Cc2ccccc2COCC1Cc1ccccc1` (stereo not shown) [1/6] cannot be ordered by IC50: under 500 nM for the first, under 500 nM for the second.

First: O=S(=O)(c1cccc2c1OCC2)N1Cc2ccccc2COCC1Cc1ccccc1 (stereo not shown) [1/9]
Second: Cc1c(F)cccc1S(=O)(=O)N1Cc2ccccc2COCC1Cc1ccccc1 (stereo not shown) [1/17]
The IC50 of the first is lower: under 500 nM for the first, 500 to 2000 nM for the second. The first is the more potent here.

`O=S(=O)(c1cccc2nonc12)N1Cc2ccccc2COCC1Cc1ccccc1` (stereo not shown) [1/10] and `O=S(=O)(c1cccc2nsnc12)N1Cc2ccccc2COCC1Cc1ccccc1` (stereo not shown) [1/12] cannot be ordered by IC50: under 500 nM for the first, under 500 nM for the second.

`O=S(=O)(c1c(Cl)ccc2nonc12)N1Cc2ccccc2COCC1Cc1ccccc1` (stereo not shown) [1/11] and `O=S(=O)(c1c(Cl)cccc1Cl)N1Cc2ccccc2COCC1Cc1ccccc1` (stereo not shown) [1/23] fall in the same range of IC50: 500 to 2000 nM for the first, 500 to 2000 nM for the second.

`Cc1ccc2nsnc2c1S(=O)(=O)N1Cc2ccccc2COCC1Cc1ccccc1` (stereo not shown) [1/13] and `Cc1ccc(Cl)cc1S(=O)(=O)N1Cc2ccccc2COCC1Cc1ccccc1` (stereo not shown) [1/20] fall in the same range of IC50: 500 to 2000 nM for the first, 500 to 2000 nM for the second.

Compared with `O=S(=O)(c1ccccc1F)N1Cc2ccccc2COCC1Cc1ccccc1` (stereo not shown) [1/14], `O=S(=O)(c1ccccc1C(F)(F)F)N1Cc2ccccc2COCC1Cc1ccccc1` (stereo not shown) [1/25] is higher in IC50: under 500 nM for the first, 500 to 2000 nM for the second.

`O=S(=O)(c1cc(Cl)ccc1F)N1Cc2ccccc2COCC1Cc1ccccc1` (stereo not shown) [1/18] and `N#Cc1ccc(Cl)cc1S(=O)(=O)N1Cc2ccccc2COCC1Cc1ccccc1` (stereo not shown) [1/19] cannot be ordered by IC50: under 500 nM for the first, under 500 nM for the second.

`O=S(=O)(c1c(F)cccc1F)N1Cc2ccccc2COCC1Cc1ccccc1` (stereo not shown) [1/22] and `O=S(=O)(c1cc(C(F)(F)F)ccc1F)N1Cc2ccccc2COCC1Cc1ccccc1` (stereo not shown) [1/24] cannot be ordered by IC50: under 500 nM for the first, under 500 nM for the second.

`O=S(=O)(c1cc(Cl)sc1Cl)N1Cc2ccccc2COCC1Cc1ccccc1` (stereo not shown) [1/27] and `Cn1cnc(S(=O)(=O)N2Cc3ccccc3COCC2Cc2ccccc2)c1Cl` (stereo not shown) [1/31] cannot be ordered by IC50: over 2000 nM for the first, over 2000 nM for the second.

First: COc1cccc(S(=O)(=O)N2Cc3ccccc3COCC2Cc2ccccc2)c1 (stereo not shown) [1/28]
Second: COc1ccc(S(=O)(=O)N2Cc3ccccc3COCC2Cc2ccccc2)cc1 (stereo not shown) [1/29]
The IC50 of the first is lower: 500 to 2000 nM for the first, over 2000 nM for the second. The first is the more potent here.

`Cc1nc(S(=O)(=O)N2Cc3ccccc3COCC2Cc2ccccc2)cn1C` (stereo not shown) [1/30] and `Cc1nn(C)c(Cl)c1S(=O)(=O)N1Cc2ccccc2COCC1Cc1ccccc1` (stereo not shown) [1/32] cannot be ordered by IC50: over 2000 nM for the first, over 2000 nM for the second.

`COc1ccccc1S(=O)(=O)N1Cc2cc(F)ccc2COCC1Cc1ccccc1` (stereo not shown) [1/33] and `COc1ccccc1S(=O)(=O)N1Cc2ccc(F)cc2COCC1Cc1ccccc1` (stereo not shown) [1/35] cannot be ordered by IC50: over 2000 nM for the first, over 2000 nM for the second.

`COc1ccc2c(c1)CN(S(=O)(=O)c1ccccc1OC)C(Cc1ccccc1)COC2` (stereo not shown) [1/34] and `COc1ccccc1S(=O)(=O)N1Cc2c(cccc2OC)COCC1Cc1ccccc1` (stereo not shown) [5/1] cannot be ordered by IC50: over 2000 nM for the first, over 2000 nM for the second.

First: COc1ccccc1S(=O)(=O)N1Cc2cccc(OC)c2COCC1Cc1ccccc1 (stereo not shown) [1/36]
Second: COc1ccccc1S(=O)(=O)N1Cc2c(Br)cccc2COCC1Cc1ccccc1 (stereo not shown) [3/1]
The IC50 of the first is lower: 500 to 2000 nM for the first, over 2000 nM for the second.

First: COc1ccccc1S(=O)(=O)N1Cc2ccccc2COCC1Cc1ccc(F)cc1 (stereo not shown) [1/37]
Second: COc1ccccc1S(=O)(=O)N1Cc2ccccc2COCC1Cc1ccc(C#N)cc1 (stereo not shown) [5/4]
The IC50 of the first is lower: 500 to 2000 nM for the first, over 2000 nM for the second. The first is the more potent here.

`COc1cccc(CC2COCc3ccccc3CN2S(=O)(=O)c2cccc3cccnc23)c1` (stereo not shown) [1/38] and `COc1cccc2c1COCC(Cc1ccccc1)N(S(=O)(=O)c1cccc3cccnc13)C2` (stereo not shown) [1/40] cannot be ordered by IC50: under 500 nM for the first, under 500 nM for the second.

Compared with `COC(=O)c1ccccc1S(=O)(=O)N1Cc2ccccc2COCC1Cc1ccccc1` (stereo not shown) [1/39], `COc1ccccc1S(=O)(=O)N1Cc2ccccc2COCC1Cc1cccc(Br)c1` (stereo not shown) [3/2] is lower in IC50: 500 to 2000 nM for the first, under 500 nM for the second.

First: COc1ccccc1S(=O)(=O)N1Cc2ccccc2COCC1CC(C)C (stereo not shown) [1/41]
Second: COc1ccccc1S(=O)(=O)N1Cc2ccccc2COCC1Cc1cccc(C#N)c1 (stereo not shown) [5/3]
The IC50 of the first is higher: 500 to 2000 nM for the first, under 500 nM for the second. The second is the more potent here.

First: CCC(C)CC1COCc2ccccc2CN1S(=O)(=O)c1cccc2cccnc12 (stereo not shown) [1/43]
Second: COC[C@@H]1COCc2ccccc2CN1S(=O)(=O)c1cccc2cccnc12 [Preparative Example 16, (R)-4-(Methoxymethyl)-5-(quinolin-8-ylsulfonyl)-3,4,5,6-tetrahydro-1H-benzo[f][1,4]oxazocine]
The IC50 of the first is lower: under 500 nM for the first, over 2000 nM for the second. The first is the more potent here.

First: COc1ccccc1S(=O)(=O)N1Cc2c(C#N)cccc2COCC1Cc1ccccc1 (stereo not shown) [5/2]
Second: COc1ccccc1S(=O)(=O)N1Cc2ccccc2CN(C)CC1Cc1ccccc1 (stereo not shown) [Preparative Example 2, 3-Benzyl-2-(2-methoxyphenylsulfonyl)-5-methyl-1,2,3,4,5,6-hexahydrobenzo-[f][1,4]-diazocine]
The IC50 of the first is higher: over 2000 nM for the first, 500 to 2000 nM for the second. The second is the more potent here.

`COc1ccccc1S(=O)(=O)N1Cc2ccccc2COCC1Cc1cccc(-c2cncnc2)c1` (stereo not shown) [5/5] and `COc1cccc(-c2cccc(CC3COCc4ccccc4CN3S(=O)(=O)c3ccccc3OC)c2)n1` (stereo not shown) [5/6] cannot be ordered by IC50: over 2000 nM for the first, over 2000 nM for the second.

First: CC(C)(C)OC[C@@H]1COCc2ncccc2CN1S(=O)(=O)c1cccc2cccnc12 [6/1]
Second: CC(C)(C)OC[C@@H]1COCc2ccccc2CN1S(=O)(=O)c1cccc2cccnc12 [Preparative Example 14, (S)-4-(tert-Butoxymethyl)-5-(quinolin-8-ylsulfonyl)-3,4,5,6-tetrahydro-1H-benzo[f][1,4]oxazocine]
The IC50 of the first is higher: over 2000 nM for the first, under 500 nM for the second. The second is the more potent here.

First: CC(C)(C)OC[C@@H]1COCc2ncccc2CN1S(=O)(=O)c1ccccc1OC(F)(F)F [6/2]
Second: CCOc1ccc(F)cc1S(=O)(=O)N1Cc2cccnc2COC[C@H]1COC(C)(C)C [6/3]
The IC50 of the first is lower: under 500 nM for the first, 500 to 2000 nM for the second.

First: CC(C)(C)OC[C@@H]1COCc2ncccc2CN1S(=O)(=O)c1c(F)cccc1F [6/4]
Second: CC(C)(C)OC[C@@H]1COCc2ncccc2CN1S(=O)(=O)c1cccc2c1OCC2 [6/5]
The IC50 of the first is higher: over 2000 nM for the first, 500 to 2000 nM for the second.

First: O=S(=O)(c1cccc2cccnc12)N1Cc2ccccc2COC[C@H]1COCc1ccccc1 [16/1]
Second: COCCOC[C@@H]1COCc2ccccc2CN1S(=O)(=O)c1cccc2cccnc12 [16/2]
The IC50 of the first is lower: 500 to 2000 nM for the first, over 2000 nM for the second. The first is the more potent here.

First: O=S(=O)(c1cccc2cccnc12)N1Cc2ccccc2COC[C@H]1CN1CCCCC1 [17/2]
Second: O=S(=O)(c1cccc2cccnc12)N1Cc2ccccc2COC[C@H]1CN1CCOCC1 [17/4]
The IC50 of the first is higher: over 2000 nM for the first, under 500 nM for the second. The second is the more potent here.

`O=S(=O)(c1ccccc1OC(F)(F)F)N1Cc2nncn2CCC[C@H]1Cc1ccccc1` [31/1] and `O=S(=O)(c1ccccc1OC(F)(F)F)N1Cc2nccn2CCC[C@H]1Cc1ccccc1` [31/2] fall in the same range of IC50: 500 to 2000 nM for the first, 500 to 2000 nM for the second.

`O=S(=O)(c1cc(F)ccc1OCCN1CCOCC1)N1Cc2ccccc2COCC1Cc1ccccc1` (stereo not shown) [Preparative Example 11] and `O=S(=O)(c1cccc2cccnc12)N1Cc2ccccc2COC[C@H]1Cn1cccn1` [Preparative Example 17, (R)-4-((1H-Pyrazol-1-yl)methyl)-5-(quinolin-8-ylsulfonyl)-3,4,5,6-tetrahydro-1H-benzo[f][1,4]oxazocine] cannot be ordered by IC50: over 2000 nM for the first, over 2000 nM for the second.

Work on `C=CC[C@@H]1COCc2ccccc2CN1S(=O)(=O)c1cccc2cccnc12` [Preparative Example 18, (R)-4-Allyl-5-(quinolin-8-ylsulfonyl)-3,4,5,6-tetrahydro-1H-benzo[f][1,4]oxazocine] yielded an IC50 of 500 to 2000 nM.

Source: patent US8940722B2, “Compounds for modulation of orphan nuclear receptor RAR-related orphan receptor-gamma (RORγ, NR1F3) activity and for the treatment of chronic inflammatory and autoimmune disease” (Phenex Pharmaceuticals AG, priority 2010, dated 2015)
